Data: patent US7115632B1, “Sulfonyl aryl or heteroaryl hydroxamic acid compounds” (priority 1999, dated 2006)

Key:
MMP-2 = target: T1, MMP-2 (Homo sapiens, UniProt P08253); test: In vitro metalloprotease inhibition, fluorogenic MCA peptide substrate; format: biochemical; conditions: Inhibition Table B
T1 construct: made in house; provided by Dr. Gregory Goldberg, Washington University
T1 sequence (P08253 110-660): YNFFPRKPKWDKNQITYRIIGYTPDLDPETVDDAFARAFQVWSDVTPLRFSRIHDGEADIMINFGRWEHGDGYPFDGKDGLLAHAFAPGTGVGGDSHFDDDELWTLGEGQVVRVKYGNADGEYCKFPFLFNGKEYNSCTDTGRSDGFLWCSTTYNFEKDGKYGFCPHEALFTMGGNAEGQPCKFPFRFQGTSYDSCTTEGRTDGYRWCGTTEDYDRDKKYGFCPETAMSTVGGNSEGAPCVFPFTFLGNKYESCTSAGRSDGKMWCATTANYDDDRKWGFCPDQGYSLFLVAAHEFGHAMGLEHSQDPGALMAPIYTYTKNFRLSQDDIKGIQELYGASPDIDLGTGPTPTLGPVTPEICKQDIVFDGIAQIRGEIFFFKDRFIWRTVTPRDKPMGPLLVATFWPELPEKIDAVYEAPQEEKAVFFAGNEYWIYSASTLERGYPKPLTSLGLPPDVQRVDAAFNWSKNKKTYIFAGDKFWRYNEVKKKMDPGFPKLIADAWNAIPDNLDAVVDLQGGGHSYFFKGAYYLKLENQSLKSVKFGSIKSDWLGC
Description: (§5) The expressed enzyme was purified first over a heparin agarose column and then over a chelating zinc chloride column. The proenzyme was activated by APMA for use in the assay.

MMP-3 = MMP-3 (Homo sapiens, UniProt P08254); test: as above; format: biochemical; conditions: Inhibition Table B
MMP-8 = MMP-8 (Homo sapiens, UniProt P22894); test: as above; format: biochemical; conditions: Inhibition Table B
Protocol: (§1) Briefly, 4-aminophenylmercuric acetate (APMA) or trypsin-activated MMPs were incubated with various concentrations of the inhibitor compound at room temperature for 5 minutes.
(§2) MCA-ProLeuGlyLeuDpaAlaArgNH2, wherein MCA is methoxycoumarin and Dpa is 3-(2,4-dinitrophenyl)-L-2,3-diaminopropionyl alanine.
(§3) The buffer used for assays contained 100 mM Tris-HCl, 100 mM NaCl, 10 mM CaCl2 and 0.05 percent polyethyleneglycol (23) lauryl ether at a pH value of 7.5.
(§4) The ID50 values were calculated from those values.

MT1-MMP = MT1-MMP (Homo sapiens, UniProt P50281); test: as above; format: biochemical; conditions: Inhibition Table B
Protocol: as §1, §2, §3, §4

MMP-13 = target: T2, MMP-13 (Homo sapiens, UniProt P45452); test: as above; format: biochemical; conditions: Inhibition Table B
T2 construct: made in house; host or cells: insect cells, baculovirus expression

MMP-9 = target: T3, MMP-9 (Homo sapiens, UniProt P14780); test: as above; format: biochemical; conditions: Inhibition Table B
T3 construct: made in house; host or cells: transfected HT-1080 cells (provided by Dr. Harold Welgus)
Protocol: as §1
MMP-1 expressed in transfected HT-1080 cells was provided by Dr. Harold Welgus of Washington University, St. Louis, Mo. The enzyme was also activated using APMA and was then purified over a hydroxamic acid column. Dr. Welgus also provided transfected HT-1080 cells that expressed MMP-9. Transfected cells that expressed MMP-2 were provided by Dr. Gregory Goldberg, also of Washington University. Further specifics for preparation and use of these enzymes can be found in the scientific literature describing these enzymes. See, for example, Enzyme Nomenclature, Academic Press, San Diego, Calif. (1992) and the citations therein, and Frije et al., J. Biol. Chem., 26(24): 16766–16773 (1994).
as §2, §3, §4

MMP-1 = target: T4, MMP-1 (Homo sapiens, UniProt P03956); test: as above; format: biochemical; conditions: Inhibition Table B
T4 construct: made in house; host or cells: transfected HT-1080 cells (provided by Dr. Harold Welgus, Washington University)
T4 sequence (P03956 100-469): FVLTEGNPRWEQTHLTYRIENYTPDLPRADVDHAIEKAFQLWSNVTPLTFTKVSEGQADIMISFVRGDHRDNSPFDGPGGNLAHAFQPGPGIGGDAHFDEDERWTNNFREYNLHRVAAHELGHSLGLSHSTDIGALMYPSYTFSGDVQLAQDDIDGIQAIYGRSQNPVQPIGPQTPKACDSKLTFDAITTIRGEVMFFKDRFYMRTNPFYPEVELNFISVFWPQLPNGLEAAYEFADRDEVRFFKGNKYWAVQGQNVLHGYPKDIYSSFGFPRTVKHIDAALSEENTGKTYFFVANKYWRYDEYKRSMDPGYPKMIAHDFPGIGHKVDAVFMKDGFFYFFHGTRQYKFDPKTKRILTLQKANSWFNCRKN
Description: as §5

[1] = test system: solid tumor cancers (colorectal, pancreatic, ovarian, prostate); conditions: cited from earlier work

Chain of MMP-8 (P22894 101-467, species assumed): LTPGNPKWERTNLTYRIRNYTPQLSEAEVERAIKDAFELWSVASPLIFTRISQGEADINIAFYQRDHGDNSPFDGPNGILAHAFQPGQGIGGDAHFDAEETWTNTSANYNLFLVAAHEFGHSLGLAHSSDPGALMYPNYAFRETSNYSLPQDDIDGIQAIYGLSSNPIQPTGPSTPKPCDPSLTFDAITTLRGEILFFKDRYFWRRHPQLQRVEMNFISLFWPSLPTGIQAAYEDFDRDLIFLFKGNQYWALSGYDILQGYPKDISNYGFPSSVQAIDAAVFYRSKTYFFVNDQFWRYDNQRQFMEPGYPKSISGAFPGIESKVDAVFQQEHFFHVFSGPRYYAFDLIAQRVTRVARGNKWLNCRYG
Chain of MMP-3 (P08254 100-477, species assumed): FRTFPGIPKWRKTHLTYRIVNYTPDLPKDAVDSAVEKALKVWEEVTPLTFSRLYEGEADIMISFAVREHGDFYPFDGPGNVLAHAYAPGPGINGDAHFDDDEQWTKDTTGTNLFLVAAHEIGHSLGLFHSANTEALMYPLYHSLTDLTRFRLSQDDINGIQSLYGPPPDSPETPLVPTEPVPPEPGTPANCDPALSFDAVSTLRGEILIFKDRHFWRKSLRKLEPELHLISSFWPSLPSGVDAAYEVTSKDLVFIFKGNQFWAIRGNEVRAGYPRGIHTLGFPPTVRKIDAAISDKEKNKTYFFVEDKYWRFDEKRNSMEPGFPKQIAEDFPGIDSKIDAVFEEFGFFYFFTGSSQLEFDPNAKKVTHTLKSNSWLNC
T3 sequence (P14780 107-707 limits assumed): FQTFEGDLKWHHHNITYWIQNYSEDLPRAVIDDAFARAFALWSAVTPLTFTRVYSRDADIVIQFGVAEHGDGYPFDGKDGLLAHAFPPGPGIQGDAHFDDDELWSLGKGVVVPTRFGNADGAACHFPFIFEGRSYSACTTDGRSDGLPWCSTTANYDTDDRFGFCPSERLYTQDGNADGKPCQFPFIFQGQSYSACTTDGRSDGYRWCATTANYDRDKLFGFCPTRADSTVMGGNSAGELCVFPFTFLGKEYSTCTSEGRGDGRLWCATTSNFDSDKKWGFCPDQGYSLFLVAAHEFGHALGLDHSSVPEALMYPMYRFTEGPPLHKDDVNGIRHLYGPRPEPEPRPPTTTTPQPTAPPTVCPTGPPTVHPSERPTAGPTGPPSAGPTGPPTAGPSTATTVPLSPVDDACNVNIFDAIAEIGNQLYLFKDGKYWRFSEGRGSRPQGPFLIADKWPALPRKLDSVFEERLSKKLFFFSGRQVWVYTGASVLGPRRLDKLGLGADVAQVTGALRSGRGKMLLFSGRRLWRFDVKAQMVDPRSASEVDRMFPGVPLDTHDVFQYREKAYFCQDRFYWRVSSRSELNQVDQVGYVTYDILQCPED

| SMILES | IC50 (MMP-2) [nM] | IC50 (MMP-3) [nM] | IC50 (MMP-8) [nM] | IC50 (MT1-MMP) [nM] | IC50 (MMP-13) [nM] | IC50 (MMP-9) [nM] | IC50 (MMP-1) [nM] | most common drug-related toxicity ([1]; clinical trials, patients) | rise of cancer-specific antigens (surrogate markers for biological activity) ([1]; patients with advanced, rapidly progressive, treatment-refractory solid tumor cancers) |
| --- | --- | --- | --- | --- | --- | --- | --- | --- | --- |
| COc1ccc(S(=O)(=O)N2CCC(Oc3ccc4c(c3)OCO4)CC2)c(C(=O)NO)c1OC [Example 50, 6-[[4-(1,3-Benzodioxole-5-yloxy)-1-piperinyl]sulfonyl]-N-hydroxy-2,3-dimethoxybenzamide] | 1.1 | 1300 | 12.2 | 270 | 18.6 | 9 | > 10000 | – | – |
| CCCCOc1ccc(OC2CCN(S(=O)(=O)c3ccc(OC)c(OC)c3C(=O)NO)CC2)cc1 [Example 54, 6-[[4-(4-Butoxyphenoxy)-1-piperidinyl]sulfonyl]-N-hydroxy-2,3-dimethoxybenzamide] | 0.8 | 31.6 | 70 | 200 | 1.6 | 2 | > 10000 | – | – |
| CNC(=O)[C@@H](NC(=O)[C@H](CC(C)C)[C@H](O)C(=O)NO)C(C)(C)C [marimastat, Marimastat] | – | – | – | – | – | – | – | musculoskeletal pain and stiffness | dose-related reduction in the rise of cancer-specific antigens |
